According to US20230146870A1, “METHOD TO QUANTIFY AFFINITY AND SELECTIVITY OF SMALL MOLECULES FOR PROTEINS IN LIVING CELLS” (Ohio State Innovation Foundation, priority 2021, published 2023):

How the values were obtained:
[1] = system: HEK293 cells expressing PKCβI-mVenus; experiment: Kinetics of uptake of probes in HEK293 cells transiently transfected with PKCβI-mVenus; type: cell-based; settings: probe 1 μM, room temperature, BIM1 2 μM, 4% FBS
Experimental: Cells were treated with probes and analyzed by flow cytometry. […] [BIM1]=2 μM. [FBS]=4%.
To investigate the potential for quantitative analysis of binding to PKCs expressed in cells, we evaluated whether 1-3 could readily achieve equilibrium, which is necessary for measurements of cellular equilibrium dissociation constants (Kd).
The cells were re-suspended in fresh reduced serum media lacking antibiotics (4% FBS) at a cell density of ˜500,000 cells per mL and were added to a 96-well plate (100 μL per well). […] Fluorescent probes were prepared as absorbance-normalized 1 mM DMSO stock solutions and diluted into reduced serum DMEM media lacking antibiotics (4% FBS) to achieve a final concentration of the probe of 1 μM ([…]). [BIM1]=2 μM. After addition of probes, cells were analyzed at room temperature every 5 min as singletons. Living cells with the greatest green fluorescence from expression of mVenus (top 20%, transfected) and the lowest green fluorescence (bottom 20%, non-transfected) were gated to obtain median PB450 values of uptake of the fluorescent probes. For the slower kinetics of uptake of probe 3, cells were analyzed every 20 min in triplicate. These curves were fitted with a one-phase association model (GraphPad Prism 9) to determine t1/2 values.

murine PKCα-mVenus = murine PKCα-mVenus (Mus musculus, UniProt P20444); experiment: FPCBA saturation binding of probe 1, HEK293 cells expressing PKCα-mVenus (Example 3)
[2] = target: T1, native (untagged) murine PKCζ (Mus musculus, UniProt Q02956); experiment: FPCBA competition with probe 1, native PKCζ in HEK293 cells; type: binding; parameters: expressed in transfected cells; host or cells: HEK293 (ATCC CRL-1573), transient transfection with pIRES-mVenus carrying the PKC gene; settings: probe 1 400 nM, BIM1 2 μM, 2 h at 37° C.
T1 sequence (Q02956 1-592): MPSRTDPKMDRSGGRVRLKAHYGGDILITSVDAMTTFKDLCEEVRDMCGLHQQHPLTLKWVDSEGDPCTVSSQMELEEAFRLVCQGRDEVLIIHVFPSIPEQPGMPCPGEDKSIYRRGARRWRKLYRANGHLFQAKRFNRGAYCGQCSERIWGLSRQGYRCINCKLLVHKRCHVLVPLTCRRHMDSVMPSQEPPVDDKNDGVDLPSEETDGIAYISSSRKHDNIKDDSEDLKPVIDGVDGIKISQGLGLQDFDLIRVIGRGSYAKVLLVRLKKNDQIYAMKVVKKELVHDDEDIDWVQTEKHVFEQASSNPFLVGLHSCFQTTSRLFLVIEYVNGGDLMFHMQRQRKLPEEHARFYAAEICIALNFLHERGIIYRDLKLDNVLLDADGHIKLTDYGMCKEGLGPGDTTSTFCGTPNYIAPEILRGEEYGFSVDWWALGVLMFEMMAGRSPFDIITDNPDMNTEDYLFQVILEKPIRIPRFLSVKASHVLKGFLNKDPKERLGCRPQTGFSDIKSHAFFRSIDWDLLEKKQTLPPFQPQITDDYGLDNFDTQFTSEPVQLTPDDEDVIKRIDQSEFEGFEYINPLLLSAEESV

[3] = target: native (untagged) murine PKCγ (Mus musculus, UniProt P63318); experiment: FPCBA competition with probe 1, native PKCγ in HEK293 cells; type: binding; parameters: For coexpression of full-length unmodified PKC proteins with mVenus as an independent marker; expressed in transfected cells; host or cells: HEK293 (transient, pIRES-mVenus); settings: read-out: Cellular Ki for native PKCγ (95% confidence interval); probe 1 400 nM, BIM1 2 μM, 2 h at 37° C.
[4] = target: T2, native (untagged) murine PKCε (Mus musculus, UniProt P16054); experiment: FPCBA competition with probe 1, native PKCε in HEK293 cells; type: binding; parameters: For coexpression of full-length unmodified PKC proteins with mVenus as an independent marker; expressed in transfected cells; host or cells: HEK293 (transient, pIRES-mVenus); settings: read-out: Cellular Ki for native PKCε (95% confidence interval); probe 1 400 nM, BIM1 2 μM, 2 h at 37° C.
T2 sequence (P16054 1-737): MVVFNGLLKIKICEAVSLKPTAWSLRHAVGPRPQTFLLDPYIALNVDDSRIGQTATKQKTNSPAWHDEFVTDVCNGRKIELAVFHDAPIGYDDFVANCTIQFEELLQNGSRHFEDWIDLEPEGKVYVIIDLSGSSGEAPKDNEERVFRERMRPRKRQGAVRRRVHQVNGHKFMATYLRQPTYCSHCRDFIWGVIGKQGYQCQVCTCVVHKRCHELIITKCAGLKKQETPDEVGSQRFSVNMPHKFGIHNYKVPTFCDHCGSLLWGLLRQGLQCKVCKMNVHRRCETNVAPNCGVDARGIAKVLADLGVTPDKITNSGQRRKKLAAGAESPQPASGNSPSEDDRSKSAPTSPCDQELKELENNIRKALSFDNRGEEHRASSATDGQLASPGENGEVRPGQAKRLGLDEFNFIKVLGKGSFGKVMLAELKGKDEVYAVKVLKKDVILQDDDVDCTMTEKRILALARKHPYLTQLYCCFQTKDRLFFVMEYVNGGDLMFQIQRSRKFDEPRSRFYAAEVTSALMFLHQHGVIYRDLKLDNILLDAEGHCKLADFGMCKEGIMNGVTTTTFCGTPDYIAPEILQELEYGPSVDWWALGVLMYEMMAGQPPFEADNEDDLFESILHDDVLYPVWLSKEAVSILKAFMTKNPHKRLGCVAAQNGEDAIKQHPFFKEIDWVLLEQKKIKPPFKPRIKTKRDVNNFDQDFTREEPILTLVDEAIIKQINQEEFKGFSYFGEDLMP

SMILES: CCCCCCN(CCCCCCCCCCCCNC(=O)c1cc2cc(F)c(O)c(F)c2oc1=O)C(=O)O[C@@]12[C@H](O)[C@@H](C)[C@@]3(O)[C@@H](C=C(CO)C[C@]4(O)C(=O)C(C)=C[C@@H]34)[C@@H]1C2(C)C [probe 1, (1aR,1bS,4aR,7aS,7bS,8R,9R,9aS)-4a,7b,9-trihydroxy-3-(hydroxymethyl)-1,1,6,8-tetramethyl-5-oxo-1,1a,1b,4,4a,5,7a,7b,8,9-decahydro-9aH-cyclopropa[3,4]benzo[1,2-e]azulen-9a-yl (12-(6,8-difluoro-7-hydroxy-2-oxo-2H-chromene-3-carboxamido)dodecyl)(hexyl)carbamate]
- half-time (t1/2) of cellular uptake in transfected cells [1]: 4 min
- Kd (murine PKCα-mVenus): 314 ± 37 nM

SMILES: CCC/C=C/C=C/C(=O)O[C@H]1/C(=C/C(=O)OC)C[C@H]2C[C@H]([C@@H](C)O)OC(=O)C[C@H](O)C[C@@H]3C[C@H](OC(C)=O)C(C)(C)[C@](O)(C[C@@H]4C/C(=C/C(=O)OC)C[C@H](/C=C/C(C)(C)[C@]1(O)O2)O4)O3 [bryostatin 1]
- Cellular Ki for native PKCζ [2]: No binding
- Ki [3]: 8 nM
- Ki [4]: 16 nM
